The first assay deals with ALL-SIL. The assay can be described thus: selective drug sensitivity score (sDSS, relative to normal bone marrow) (sDSS (score)); higher = more potent and effective on the cell line relative to normal bone marrow cells. Conditions: 72 h.
For `Cn1cc(C[C@@H](N)C(=O)O)c2ccccc21` [1-methyl-D-tryptophan] (top concentration 5000 nM), the “selective drug sensitivity score” value was -0.62.
Consider `CN(C)C[C@@H]1CCn2cc(c3ccccc32)C2=C(C(=O)NC2=O)c2cn(c3ccccc23)CCO1` [Ruboxistaurin] (top concentration 10000 nM), for which the “selective drug sensitivity score” value is -2.94.
Still for that read-out and setting: as for `CCNC(=O)CCC/C=C\C[C@@H]1[C@@H](/C=C/[C@@H](O)CCc2ccccc2)[C@H](O)C[C@@H]1O` [Bimatoprost] (top concentration 5500 nM), the figure is 0; as for `O=c1[nH]cc(F)c(=O)[nH]1` [Fluorouracil] (top concentration 10000 nM), -0.64; as for `CC1(C)NC(=O)N(c2ccc([N+](=O)[O-])c(C(F)(F)F)c2)C1=O` [Nilutamide] (top concentration 10000 nM), 0.82.
Turning to `CNC(=O)c1ccc2cc([C@@]3(O)CCn4cncc43)ccc2c1` [Orteronel] (top concentration 10000 nM), the “selective drug sensitivity score” value came out at 0.
For the compound `CCC(C)(C)C(=O)O[C@H]1C[C@@H](C)C=C2C=C[C@H](C)[C@H](CC[C@@H]3C[C@@H](O)CC(=O)O3)[C@H]21` [Simvastatin] (top concentration 10000 nM), the “selective drug sensitivity score” value stood at 2.38.
The same measure, in the same setting: as for `C[C@]12CC[C@H](O)CC1=CC[C@@H]1[C@@H]2CC[C@]2(C)C(c3cccnc3)=CC[C@@H]12` [Abiraterone] (top concentration 5000 nM), the figure is -0.12.

The test system of the next assay is MOLT-4. The assay is described as above. Conditions: 72 h.
`Cn1cc(C[C@@H](N)C(=O)O)c2ccccc21` [1-methyl-D-tryptophan] (top concentration 5000 nM): the “selective drug sensitivity score” value was -0.62.
With `CN(C)C[C@@H]1CCn2cc(c3ccccc32)C2=C(C(=O)NC2=O)c2cn(c3ccccc23)CCO1` [Ruboxistaurin] (top concentration 10000 nM), the “selective drug sensitivity score” value is -1.24.
Same read-out and setting: with `CCNC(=O)CCC/C=C\C[C@@H]1[C@@H](/C=C/[C@@H](O)CCc2ccccc2)[C@H](O)C[C@@H]1O` [Bimatoprost] (top concentration 5500 nM) the figure was 0; with `O=c1[nH]cc(F)c(=O)[nH]1` [Fluorouracil] (top concentration 10000 nM), 2.76; with `CC1(C)NC(=O)N(c2ccc([N+](=O)[O-])c(C(F)(F)F)c2)C1=O` [Nilutamide] (top concentration 10000 nM), -0.48.
On the same count and under the same terms, as for `CNC(=O)c1ccc2cc([C@@]3(O)CCn4cncc43)ccc2c1` [Orteronel] (top concentration 10000 nM), the figure is 0; as for `CCC(C)(C)C(=O)O[C@H]1C[C@@H](C)C=C2C=C[C@H](C)[C@H](CC[C@@H]3C[C@@H](O)CC(=O)O3)[C@H]21` [Simvastatin] (top concentration 10000 nM), -0.72.
Same read-out and setting: as for `C[C@]12CC[C@H](O)CC1=CC[C@@H]1[C@@H]2CC[C@]2(C)C(c3cccnc3)=CC[C@@H]12` [Abiraterone] (top concentration 5000 nM), the figure is -0.12.

Another assay relates to REH. The description is as above. Conditions: 72 h.
Regarding `Cn1cc(C[C@@H](N)C(=O)O)c2ccccc21` [1-methyl-D-tryptophan] (top concentration 5000 nM), the “selective drug sensitivity score” value was 3.68.
The same measure, in the same setting: with `CN(C)C[C@@H]1CCn2cc(c3ccccc32)C2=C(C(=O)NC2=O)c2cn(c3ccccc23)CCO1` [Ruboxistaurin] (top concentration 10000 nM) the figure was -0.54; with `CCNC(=O)CCC/C=C\C[C@@H]1[C@@H](/C=C/[C@@H](O)CCc2ccccc2)[C@H](O)C[C@@H]1O` [Bimatoprost] (top concentration 5500 nM), 1.4.
As to `O=c1[nH]cc(F)c(=O)[nH]1` [Fluorouracil] (top concentration 10000 nM), the “selective drug sensitivity score” value came to 1.76.
For `CC1(C)NC(=O)N(c2ccc([N+](=O)[O-])c(C(F)(F)F)c2)C1=O` [Nilutamide] (top concentration 10000 nM), the “selective drug sensitivity score” value came to 0.22.
Still for that read-out and setting: with `CNC(=O)c1ccc2cc([C@@]3(O)CCn4cncc43)ccc2c1` [Orteronel] (top concentration 10000 nM) the figure was 0; with `CCC(C)(C)C(=O)O[C@H]1C[C@@H](C)C=C2C=C[C@H](C)[C@H](CC[C@@H]3C[C@@H](O)CC(=O)O3)[C@H]21` [Simvastatin] (top concentration 10000 nM), 0.88.
Regarding `C[C@]12CC[C@H](O)CC1=CC[C@@H]1[C@@H]2CC[C@]2(C)C(c3cccnc3)=CC[C@@H]12` [Abiraterone] (top concentration 5000 nM), the “selective drug sensitivity score” value is -0.12.

The next assay concerns SUP-B15. The description is as above. Particulars: 72 h.
`Cn1cc(C[C@@H](N)C(=O)O)c2ccccc21` [1-methyl-D-tryptophan] (top concentration 5000 nM): the “selective drug sensitivity score” value is -0.62.
Same read-out and setting: with `CN(C)C[C@@H]1CCn2cc(c3ccccc32)C2=C(C(=O)NC2=O)c2cn(c3ccccc23)CCO1` [Ruboxistaurin] (top concentration 10000 nM) the figure was 0.06.
On the same count and under the same terms, as for `CCNC(=O)CCC/C=C\C[C@@H]1[C@@H](/C=C/[C@@H](O)CCc2ccccc2)[C@H](O)C[C@@H]1O` [Bimatoprost] (top concentration 5500 nM), the figure is 0; as for `O=c1[nH]cc(F)c(=O)[nH]1` [Fluorouracil] (top concentration 10000 nM), 3.46; as for `CC1(C)NC(=O)N(c2ccc([N+](=O)[O-])c(C(F)(F)F)c2)C1=O` [Nilutamide] (top concentration 10000 nM), -0.48.
On the same count and under the same terms, with `CNC(=O)c1ccc2cc([C@@]3(O)CCn4cncc43)ccc2c1` [Orteronel] (top concentration 10000 nM) the figure was 2.1.
As for `CCC(C)(C)C(=O)O[C@H]1C[C@@H](C)C=C2C=C[C@H](C)[C@H](CC[C@@H]3C[C@@H](O)CC(=O)O3)[C@H]21` [Simvastatin] (top concentration 10000 nM), the “selective drug sensitivity score” value was -0.72.
The same measure, in the same setting: as for `C[C@]12CC[C@H](O)CC1=CC[C@@H]1[C@@H]2CC[C@]2(C)C(c3cccnc3)=CC[C@@H]12` [Abiraterone] (top concentration 5000 nM), the figure is -0.02.

Another assay deals with COG-LL-394h. Described as above. Conditions: 72 h.
Consider `Cn1cc(C[C@@H](N)C(=O)O)c2ccccc21` [1-methyl-D-tryptophan] (top concentration 5000 nM), for which the “selective drug sensitivity score” value was -0.62.
`CN(C)C[C@@H]1CCn2cc(c3ccccc32)C2=C(C(=O)NC2=O)c2cn(c3ccccc23)CCO1` [Ruboxistaurin] (top concentration 10000 nM): the “selective drug sensitivity score” value amounted to 0.76.
Turning to `CCNC(=O)CCC/C=C\C[C@@H]1[C@@H](/C=C/[C@@H](O)CCc2ccccc2)[C@H](O)C[C@@H]1O` [Bimatoprost] (top concentration 5500 nM), the “selective drug sensitivity score” value worked out at 0.
Still for that read-out and setting: with `O=c1[nH]cc(F)c(=O)[nH]1` [Fluorouracil] (top concentration 10000 nM) the figure was -0.34; with `CC1(C)NC(=O)N(c2ccc([N+](=O)[O-])c(C(F)(F)F)c2)C1=O` [Nilutamide] (top concentration 10000 nM), -0.48.
On the same count and under the same terms, with `CNC(=O)c1ccc2cc([C@@]3(O)CCn4cncc43)ccc2c1` [Orteronel] (top concentration 10000 nM) the figure was 0.
Turning to `CCC(C)(C)C(=O)O[C@H]1C[C@@H](C)C=C2C=C[C@H](C)[C@H](CC[C@@H]3C[C@@H](O)CC(=O)O3)[C@H]21` [Simvastatin] (top concentration 10000 nM), the “selective drug sensitivity score” value was -0.72.
Same read-out and setting: with `C[C@]12CC[C@H](O)CC1=CC[C@@H]1[C@@H]2CC[C@]2(C)C(c3cccnc3)=CC[C@@H]12` [Abiraterone] (top concentration 5000 nM) the figure was -0.12.

(Values after the supplement of paper PMC8967900.)
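Also: ALL cell lines in 384-well plates, five doses spanning 10,000-fold, each plate scaled between vehicle and 100 µmol/L benzalkonium chloride controls, sDSS an adapted area-under-curve metric.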
